Consider 27 compounds from ChEMBL document CHEMBL1123701, “Synthesis and quantitative structure-activity relationship analysis of N-triiodoallyl- and N-iodopropargylazoles. New antifungal agents” (1987).

Each structure is given as a SMILES string. ≈ marks a conversion by molar mass, not a printed value.

For assay [1], the system named is Aspergillus fumigatus. Description: Antifungal activity against Aspergillus fumigatus Saito strain. The format is functional.
The subject of assay [2] is Candida albicans. Description: Antifungal activity against Candida albicans C-A-24 strain. Format: functional.
For assay [3], the system named is Cryptococcus neoformans. Description: Antifungal activity against Cryptococcus neoformans Cr-1 strain. Format: functional.
Assay [4] concerns Trichophyton interdigitale. Description: Antifungal activity towards Trichophyton interdigitale. The format is functional.
Assay [5] has as its system Trichophyton benhamiae. Description: Antifungal activity towards Trichophyton mentagrophytes 530324 strain. The format is functional, Arthroderma benhamiae.

For `CC(C)Cc1nnn(CC#CI)n1`, the MIC (in general, the least concentration at which growth counts as inhibited) in assay [1] worked out at 0.78 µg/mL (≈ 2.69 µM); in assay [2] it was 3.13 µg/mL (≈ 10.8 µM); in assay [3] it was 3.13 µg/mL (≈ 10.8 µM); in assay [4], 0.39 µg/mL (≈ 1.34 µM); in assay [5], 0.39 µg/mL (≈ 1.34 µM).
For `CC(C)c1nnn(CC(I)=C(I)I)n1`, the MIC came out at 6.25 µg/mL (≈ 11.8 µM) in assay [2] and 0.78 µg/mL (≈ 1.47 µM) in assay [5].
Take `Oc1ccc(-c2nnn(CC#CI)n2)cc1`: the MIC in assay [1] worked out at 0.39 µg/mL (≈ 1.2 µM); in assay [2] it was 6.25 µg/mL (≈ 19.2 µM); in assay [3], 12.5 µg/mL (≈ 38.3 µM); in assay [4], 0.1 µg/mL (≈ 0.307 µM); in assay [5], 0.2 µg/mL (≈ 0.613 µM).
For the compound `CN(C)c1ccc(-c2nnn(CC#CI)n2)cc1`, the MIC in assay [1] is 50 µg/mL (≈ 142 µM); in assay [2], 50 µg/mL (≈ 142 µM); in assay [3], 50 µg/mL (≈ 142 µM); in assay [4], 0.78 µg/mL (≈ 2.21 µM); in assay [5], 0.78 µg/mL (≈ 2.21 µM).
Take `CC(C)Cc1nnnn1CC#CI`: the MIC came to 3.13 µg/mL (≈ 10.8 µM) in assay [1]; 12.5 µg/mL (≈ 43.1 µM) in assay [2]; 6.25 µg/mL (≈ 21.5 µM) in assay [3]; 1.56 µg/mL (≈ 5.38 µM) in assay [4]; 1.56 µg/mL (≈ 5.38 µM) in assay [5].
In the case of `Cc1nnn(CC(I)=C(I)I)n1`, the MIC was found to be 0.39 µg/mL (≈ 0.777 µM) in assay [1], 0.78 µg/mL (≈ 1.55 µM) in assay [2], 0.2 µg/mL (≈ 0.399 µM) in assay [4] and 0.2 µg/mL (≈ 0.399 µM) in assay [5].
Turning to `CC(C)(C)c1nnn(CC#CI)n1`, the MIC is 1.56 µg/mL (≈ 5.38 µM) in assay [1]; 3.13 µg/mL (≈ 10.8 µM) in assay [2]; 25 µg/mL (≈ 86.2 µM) in assay [3]; 0.78 µg/mL (≈ 2.69 µM) in assay [4]; 0.78 µg/mL (≈ 2.69 µM) in assay [5].
Turning to `Cc1nnnn1CC(I)=C(I)I`, the MIC stood at 3.13 µg/mL (≈ 6.24 µM) in assay [2] and 0.78 µg/mL (≈ 1.55 µM) in assay [5].
Consider `CCCCCCCc1nnnn1CC(I)=C(I)I`, for which the MIC is > 25 µg/mL in assay [2], > 25 µg/mL in assay [3], 0.1 µg/mL (≈ 0.171 µM) in assay [4] and 0.1 µg/mL (≈ 0.171 µM) in assay [5].
For the compound `CCCCCc1nnnn1CC(I)=C(I)I`, the MIC is > 25 µg/mL in assay [3], 0.1 µg/mL (≈ 0.179 µM) in assay [4] and 0.1 µg/mL (≈ 0.179 µM) in assay [5].
Turning to `CCCCCCCc1nnn(CC#CI)n1`, the MIC in assay [1] was found to be 0.78 µg/mL (≈ 2.35 µM); in assay [2], 12.5 µg/mL (≈ 37.6 µM); in assay [3], 6.25 µg/mL (≈ 18.8 µM); in assay [4] it was 0.1 µg/mL (≈ 0.301 µM); in assay [5], 0.1 µg/mL (≈ 0.301 µM).
For `Clc1ccc(-c2nnnn2CC#CI)cc1`, the MIC came to 0.39 µg/mL (≈ 1.13 µM) in assay [1], 1.56 µg/mL (≈ 4.53 µM) in assay [2], 0.39 µg/mL (≈ 1.13 µM) in assay [4] and 0.2 µg/mL (≈ 0.58 µM) in assay [5].
As to `Cc1nccn1CC(I)=C(I)I`, the minimum inhibitory concentration (MIC) in assay [1] came out at 6.25 µg/mL (≈ 12.5 µM); in assay [2] it was 12.5 µg/mL (≈ 25 µM); in assay [3], 25 µg/mL (≈ 50 µM); in assay [4], 3.13 µg/mL (≈ 6.26 µM); in assay [5], 6.25 µg/mL (≈ 12.5 µM).
Take `O=[N+]([O-])c1cn(CC(I)=C(I)I)c(Cl)c1Cl`: the MIC turned out to be 0.2 µg/mL (≈ 0.334 µM) in assay [1], 0.39 µg/mL (≈ 0.651 µM) in assay [2], 0.2 µg/mL (≈ 0.334 µM) in assay [3] and 0.2 µg/mL (≈ 0.334 µM) in assay [5].
With `O=[N+]([O-])c1cccn1CC(I)=C(I)I`, the MIC was found to be 0.39 µg/mL (≈ 0.736 µM) in assay [1]; 0.39 µg/mL (≈ 0.736 µM) in assay [2]; 6.25 µg/mL (≈ 11.8 µM) in assay [3]; 0.1 µg/mL (≈ 0.189 µM) in assay [4]; 0.2 µg/mL (≈ 0.377 µM) in assay [5].
On to `IC#CCn1nnnc1C1CC1`, for which the MIC worked out at 3.13 µg/mL (≈ 11.4 µM) in assay [1]; 12.5 µg/mL (≈ 45.6 µM) in assay [2]; 12.5 µg/mL (≈ 45.6 µM) in assay [3]; 3.13 µg/mL (≈ 11.4 µM) in assay [4]; 1.56 µg/mL (≈ 5.69 µM) in assay [5].
With `Cc1ccc(-c2nnn(CC#CI)n2)cc1`, the MIC in assay [5] came out at 0.2 µg/mL (≈ 0.617 µM).
As for `IC(I)=C(I)Cn1nnc(-c2ccccc2)n1`, the values for the MIC in assay [2], in assay [4] and in assay [5] were 12.5 µg/mL (≈ 22.2 µM), 3.13 µg/mL (≈ 5.55 µM) and 1.56 µg/mL (≈ 2.77 µM), respectively.
`IC#CCn1cnnn1`: the MIC in assay [1] was determined as 1.56 µg/mL (≈ 6.67 µM); in assay [2], 3.13 µg/mL (≈ 13.4 µM); in assay [3] it was 0.78 µg/mL (≈ 3.33 µM); in assay [4] it was 1.56 µg/mL (≈ 6.67 µM); in assay [5] it was 1.56 µg/mL (≈ 6.67 µM).
On to `Clc1ccccc1-c1nnn(CC#CI)n1`, for which the MIC is 0.78 µg/mL (≈ 2.26 µM) in assay [1]; 1.56 µg/mL (≈ 4.53 µM) in assay [2]; 1.56 µg/mL (≈ 4.53 µM) in assay [3]; 0.1 µg/mL (≈ 0.29 µM) in assay [4]; 0.1 µg/mL (≈ 0.29 µM) in assay [5].
As for `IC(I)=C(I)Cn1cnnn1`, the MIC in assay [2] was determined as 3.13 µg/mL (≈ 6.42 µM); in assay [3], 3.13 µg/mL (≈ 6.42 µM); in assay [5], 0.39 µg/mL (≈ 0.799 µM).
Turning to `O=[N+]([O-])c1ccn(CC(I)=C(I)I)c1`, the MIC in assay [1], in assay [2] and in assay [5] was 0.2 µg/mL (≈ 0.377 µM) in each case.
As to `IC(I)=C(I)Cn1ccnc1`, the MIC was 1.56 µg/mL (≈ 3.21 µM) in assay [1], 1.56 µg/mL (≈ 3.21 µM) in assay [2], 3.13 µg/mL (≈ 6.44 µM) in assay [4] and 1.56 µg/mL (≈ 3.21 µM) in assay [5].
`O=[N+]([O-])c1nccn1CC(I)=C(I)I`: the MIC in assay [2] and in assay [5] was 0.78 µg/mL (≈ 1.47 µM) in each case.
`O=[N+]([O-])c1cn(CC(I)=C(I)I)cn1`: the MIC came out at 0.39 µg/mL (≈ 0.735 µM) in assay [1]; 3.13 µg/mL (≈ 5.9 µM) in assay [2]; 6.25 µg/mL (≈ 11.8 µM) in assay [3]; 0.39 µg/mL (≈ 0.735 µM) in assay [4]; 0.78 µg/mL (≈ 1.47 µM) in assay [5].
With `COC(=O)c1cccn1CC#CI`, the minimum inhibitory concentration (MIC) in assay [1] was 1.56 µg/mL (≈ 5.4 µM); in assay [2], 3.13 µg/mL (≈ 10.8 µM); in assay [3], 6.25 µg/mL (≈ 21.6 µM); in assay [4], 1.56 µg/mL (≈ 5.4 µM); in assay [5], 1.56 µg/mL (≈ 5.4 µM).
For `IC(I)=C(I)Cn1ncnn1`, the MIC in assay [1] turned out to be 0.2 µg/mL (≈ 0.41 µM); in assay [2], 0.2 µg/mL (≈ 0.41 µM); in assay [4] it was 0.1 µg/mL (≈ 0.205 µM); in assay [5], 0.1 µg/mL (≈ 0.205 µM).
